Data: the supplement of paper PMC13380429

Assays:
Conditions in all cases: 72 h
U2OS [1] = assay: drug sensitivity score (DSS) for viability; higher = more toxic; extreme values may be limits of the assay
Vero E6 [2] = assay: as above
Calu-3 [3] = assay: as above
Caco-2 [4] = assay: as above
HepG2 [5] = assay: as above
U2OS [6] = assay: relative viability EC50 (midpoint between 100% and the lowest measured viability); higher = less toxic
Vero E6 [7] = assay: as above
Calu-3 [8] = assay: as above
HepG2 [9] = assay: as above
U2OS [10] = assay: cell viability relative to DMSO; higher = less toxic
Vero E6 [11] = assay: as above
Calu-3 [12] = assay: as above
Caco-2 [13] = assay: as above
HepG2 [14] = assay: as above

Compound: O=C(Nc1cccnc1)N1CCC(Cc2cccc(Oc3ccc(C(F)(F)F)cn3)c2)CC1 [PF-3845]
- drug sensitivity score (U2OS [1]): 0.6
- drug sensitivity score (Vero E6 [2]): 0.6
- drug sensitivity score (Calu-3 [3]): 0.5
- drug sensitivity score (Caco-2 [4]): 2.4
- drug sensitivity score (HepG2 [5]): 3.6
- relative viability EC50 (U2OS [6]): > 10 µM
- relative viability EC50 (Vero E6 [7]): > 10 µM
- relative viability EC50 (Calu-3 [8]): > 10 µM
- relative viability EC50 (HepG2 [9]): 3.25 µM
- cell viability (U2OS [10]; 1 nM): 97.3%
- cell viability (U2OS [10]; 10 nM): 107%
- cell viability (U2OS [10]; 100 nM): 101%
- cell viability (U2OS [10]; 1000 nM): 98.5%
- cell viability (U2OS [10]; 10000 nM): 82.7%
- cell viability (Vero E6 [11]; 1 nM): 103%
- cell viability (Vero E6 [11]; 10 nM): 96.8%
- cell viability (Vero E6 [11]; 100 nM): 89.9%
- cell viability (Vero E6 [11]; 1000 nM): 101%
- cell viability (Vero E6 [11]; 10000 nM): 78.7%
- cell viability (Calu-3 [12]; 1 nM): 103%
- cell viability (Calu-3 [12]; 10 nM): 105%
- cell viability (Calu-3 [12]; 100 nM): 104%
- cell viability (Calu-3 [12]; 1000 nM): 102%
- cell viability (Calu-3 [12]; 10000 nM): 79.1%
- cell viability (Caco-2 [13]; 1 nM): 99.7%
- cell viability (Caco-2 [13]; 10 nM): 103%
- cell viability (Caco-2 [13]; 100 nM): 90.3%
- cell viability (Caco-2 [13]; 1000 nM): 92.4%
- cell viability (Caco-2 [13]; 10000 nM): 66.9%
- cell viability (HepG2 [14]; 1 nM): 109%
- cell viability (HepG2 [14]; 10 nM): 102%
- cell viability (HepG2 [14]; 100 nM): 98.3%
- cell viability (HepG2 [14]; 1000 nM): 101%
- cell viability (HepG2 [14]; 10000 nM): 32.7%

Compound: CC[C@H](C)C(=O)O[C@H]1C[C@H](O)C=C2C=C[C@H](C)[C@H](CC[C@@H](O)C[C@@H](O)CC(=O)O)[C@H]21 [PRAVASTATIN SODIUM]
- drug sensitivity score (U2OS [1]): 0
- drug sensitivity score (Vero E6 [2]): 0
- drug sensitivity score (Calu-3 [3]): 0
- drug sensitivity score (HepG2 [5]): 0
- relative viability EC50 (U2OS [6]): > 10 µM
- relative viability EC50 (Vero E6 [7]): > 10 µM
- relative viability EC50 (Calu-3 [8]): > 10 µM
- cell viability (U2OS [10]; 1 nM): 97.7%
- cell viability (U2OS [10]; 10 nM): 100%
- cell viability (U2OS [10]; 100 nM): 94.2%
- cell viability (U2OS [10]; 1000 nM): 101%
- cell viability (U2OS [10]; 10000 nM): 98.5%
- cell viability (Vero E6 [11]; 1 nM): 98.9%
- cell viability (Vero E6 [11]; 10 nM): 109%
- cell viability (Vero E6 [11]; 100 nM): 107%
- cell viability (Vero E6 [11]; 1000 nM): 96.4%
- cell viability (Vero E6 [11]; 10000 nM): 105%
- cell viability (Calu-3 [12]; 1 nM): 98.2%
- cell viability (Calu-3 [12]; 10 nM): 93.8%
- cell viability (Calu-3 [12]; 100 nM): 93.3%
- cell viability (Calu-3 [12]; 1000 nM): 98.2%
- cell viability (Calu-3 [12]; 10000 nM): 95.2%
- cell viability (HepG2 [14]; 1 nM): 112%
- cell viability (HepG2 [14]; 10 nM): 105%
- cell viability (HepG2 [14]; 100 nM): 93%
- cell viability (HepG2 [14]; 1000 nM): 86.1%
- cell viability (HepG2 [14]; 10000 nM): 112%

Compound: N#CC(=C(/N)Sc1ccccc1N)/C(C#N)=C(/N)Sc1ccccc1N [U-0126]
- drug sensitivity score (U2OS [1]): 0.4
- drug sensitivity score (Vero E6 [2]): 1.3
- drug sensitivity score (Calu-3 [3]): 0
- drug sensitivity score (Caco-2 [4]): 3.4
- drug sensitivity score (HepG2 [5]): 6.6
- relative viability EC50 (U2OS [6]): > 10 µM
- relative viability EC50 (Vero E6 [7]): > 10 µM
- relative viability EC50 (Calu-3 [8]): > 10 µM
- relative viability EC50 (HepG2 [9]): 0.953 µM
- cell viability (U2OS [10]; 1 nM): 98.2%
- cell viability (U2OS [10]; 10 nM): 104%
- cell viability (U2OS [10]; 100 nM): 96.9%
- cell viability (U2OS [10]; 1000 nM): 98.3%
- cell viability (U2OS [10]; 10000 nM): 84.3%
- cell viability (Vero E6 [11]; 1 nM): 102%
- cell viability (Vero E6 [11]; 10 nM): 99.9%
- cell viability (Vero E6 [11]; 100 nM): 97.9%
- cell viability (Vero E6 [11]; 1000 nM): 88.6%
- cell viability (Vero E6 [11]; 10000 nM): 80.9%
- cell viability (Calu-3 [12]; 1 nM): 94.6%
- cell viability (Calu-3 [12]; 10 nM): 102%
- cell viability (Calu-3 [12]; 100 nM): 100%
- cell viability (Calu-3 [12]; 1000 nM): 90.6%
- cell viability (Calu-3 [12]; 10000 nM): 93.5%
- cell viability (Caco-2 [13]; 1 nM): 100%
- cell viability (Caco-2 [13]; 10 nM): 96.8%
- cell viability (Caco-2 [13]; 100 nM): 99.3%
- cell viability (Caco-2 [13]; 1000 nM): 86.4%
- cell viability (Caco-2 [13]; 10000 nM): 65%
- cell viability (HepG2 [14]; 1 nM): 101%
- cell viability (HepG2 [14]; 10 nM): 95.9%
- cell viability (HepG2 [14]; 100 nM): 94.7%
- cell viability (HepG2 [14]; 1000 nM): 70.6%
- cell viability (HepG2 [14]; 10000 nM): 41%
